The term fraction unbound denotes free concentration divided by total concentration. A word on the MIC50: it is an inhibitory concentration at the 50% level, which refers to growth in some studies and to a panel of isolates in others. As usually defined, the MIC90 is the lowest concentration that inhibits either 90% of growth or 90% of the strains tested, depending on the study.

Values after ≈ are worked out from the molar mass of the structure shown.

The nature of data set [1]: In vitro plasma protein binding (ultrafiltration), monkey plasma. The format is in vitro ADME, monkey (Cynomolgus). Particulars: 10-10,000 ng/mL, mean±SD, read-out: mean unbound protein fraction (fu) in plasma. As for the experimental part:
(§1) For human binding studies, plasma was obtained from the blood of three healthy male volunteers. Plasma was defrosted from storage at -20° C. before use, and pools of human plasma were used for all studies. Plasma from mouse, rat, and monkey was supplied by Harlan Laboratories Ltd. (Netherlands), Milan […], Switzerland) and Centre de Primatologie ULP (France), respectively. Protein binding was measured using an ultrafiltration method. To asses the suitability of ultrafiltration, the recovery and free permeation of [^14C]-labelled Compound 1 in PBS buffer were investigated. […] Three 1 mL aliquots per concentration were introduced into […]® devices and spun for 1 min at 2000 g (filtrate ≤500 μL). Samples of the spiked solutions, the filtrate and retentate were quantified by LSC; volumes were determined by weighing. The free permeation of the test compound in PBS was evaluated as follows: Ratio=[Cuf/Cr] with Cuf being the concentration in the ultrafiltrate (ng/mL) and Cr the concentration in the retentate (ng/mL). […] Specifically, concentrations of Compound 1 was determined by an UPLC-MS/MS method. […] Standards and quality control samples were prepared on the day of analysis by adding a 20 μL aliquot of an appropriate standard or QC spiking solution in methanol. A 25 μL aliquot of the internal standard (at 200 ng/mL in methanol) was added to each well except blanks. […] Samples were processed using protein precipitation. A 0.5 mL aliquot of an acetonitrile/ethanol/acetic acid mixture (90:10:0.1, v:v:v) was added to each sample; samples were mixed using a vortex mixer for 10 minutes, and centrifuged 3800 rpm (approximately 2500×g) for 10 min at 10° C. […] The ions monitored for Compound 1 was the parent [M+H]^+ ion at m/z 557.3.0; the product ions at m/z 453.4. […] The quantification was performed using Analyst software and Watson LIMS version 7.2.0.01. Concentrations in QC and study samples were calculated from the resulting peak area ratios and interpolation from the regression equations of the respective calibration curves. The lower limit of quantitation was 5.0 ng/mL for Compound 1.

The subject of a further data set is plasma proteins. The description is as above. Format: in vitro ADME, monkey (Cynomolgus). Particulars: 10-10,000 ng/mL. As for the experimental part:
as §1

Data set [2] can be described thus: 14C-Compound 1 excretion and kidney/blood distribution in rats. Format: in vivo, rat. Particulars: for dose excreted in the urine: IV 5 mg/kg. The protocol:
In rats, based on ^14C-Compound 1 dosed intravenously, approximately 30% of the dose (5 mg/kg) was excreted in the urine, with 25% excreted in the first 24 hours. The remainder of the dose was excreted into the feces. After IV dosing, the concentration of radioactivity in the kidney (cortex: 12,700 ng/g; medulla: 11,500 ng/g; pelvis: 11,300 ng/g) exceeded the blood concentration (1,570 ng/ml) 5 minutes post dose and at 24 hrs post dose (blood: 57.6 ng/ml; kidney cortex 318 ng/g; kidney medulla: 167 ng/g; kidney pelvis: 161 ng/g).

The test system of data set [3] is E. coli (Carbapenem Resistant). Put plainly: Broth microdilution MIC against UTI pathogens (Example 4). The format is cell-based. Particulars: Escherichia coli; 25 isolates. The protocol: (§2) Antimicrobial activities of Compound 1 against a variety of common pathogens found in UTI were determined using a standard broth microdilution method (CLSI in Methods for Dilution Antimicrobial Susceptibility Tests for Bacteria That Grow Aerobically, Approved Standard M7-A8, Clinical and Laboratory Standards Institute, Wayne, Pa. (USA), 2011, incorporated herein by reference) with slight modifications.

For a further data set, the system named is E. coli (ESBL phenotype). Described as above. Format: cell-based. Particulars: Escherichia coli; 2,743 isolates. As for the experimental part: as §2
In data set [4] the test system is E. coli (non-ESBL phenotype). The data set is described as above. Format: cell-based. Particulars: Escherichia coli; 10,696 isolates. As for the experimental part:
as §2

The test system of data set [5] is human transporters and cytochrome P-450. Particulars: cited from earlier work.

Take `CN(C)c1cc(CNCC(C)(C)C)c(O)c2c1C[C@H]1C[C@H]3[C@H](N(C)C)C(O)=C(C(N)=O)C(=O)[C@@]3(O)C(O)=C1C2=O` [Compound 1, 9-[(2,2-dimethyl-propylamino)-methyl]-minocycline]: the fraction unbound in data set [1] was 0.788 ± 0.0726. Moreover, in the data set on plasma proteins, the “Mean (SD) Bound Fraction” value is listed as 21.2 (7.26) %. In the data set with plasma proteins (mean±SD), the “mean unbound protein fraction (fu) in plasma” value was found to be 78.8±7.3%. Moreover, the “dose excreted in the urine” value in data set [2] (first 24 hours) is on record as 25%. Further, the “dose excreted in the urine” value in data set [2] (total) is given as “approximately 30%”. Also, in data set [2] (IV, 5 minutes post dose), the “concentration of radioactivity, blood” value is reported as 1,570 ng/ml; the “concentration of radioactivity, kidney cortex” value is reported as 12,700 ng/g; the “concentration of radioactivity, kidney medulla” value is reported as 11,500 ng/g. Also, in data set [2] (IV, 24 hrs post dose), the “concentration of radioactivity, kidney cortex” value was found to be 318 ng/g; the “concentration of radioactivity, kidney medulla” value is recorded as 167 ng/g; the “concentration of radioactivity, kidney pelvis” value is recorded as 161 ng/g. In data set [3], this compound showed an MIC50 of 1 µg/mL (≈ 1.8 µM) and an MIC90 of 4 µg/mL (≈ 7.19 µM). In the data set with E. coli (ESBL phenotype), this compound returned an MIC50 of 1 µg/mL (≈ 1.8 µM) and an MIC90 of 4 µg/mL (≈ 7.19 µM). In data set [4], this compound came in with an MIC50 of 0.5 µg/mL (≈ 0.898 µM) and an MIC90 of 2 µg/mL (≈ 3.59 µM). The “potential for drug-drug interactions” value in data set [5] is “low potential for drug-drug interactions”.

The values above are taken from US10238670B2, “9-aminomethyl minocycline compounds and methods of use thereof in urinary tract infection (UTI) treatment” (Paratek Pharmaceuticals, Inc., priority 2016, dated 2019).
